Assay [1] concerns the target T1, ER-α (Homo sapiens, UniProt P03372).
T1 sequence (P03372 1-595): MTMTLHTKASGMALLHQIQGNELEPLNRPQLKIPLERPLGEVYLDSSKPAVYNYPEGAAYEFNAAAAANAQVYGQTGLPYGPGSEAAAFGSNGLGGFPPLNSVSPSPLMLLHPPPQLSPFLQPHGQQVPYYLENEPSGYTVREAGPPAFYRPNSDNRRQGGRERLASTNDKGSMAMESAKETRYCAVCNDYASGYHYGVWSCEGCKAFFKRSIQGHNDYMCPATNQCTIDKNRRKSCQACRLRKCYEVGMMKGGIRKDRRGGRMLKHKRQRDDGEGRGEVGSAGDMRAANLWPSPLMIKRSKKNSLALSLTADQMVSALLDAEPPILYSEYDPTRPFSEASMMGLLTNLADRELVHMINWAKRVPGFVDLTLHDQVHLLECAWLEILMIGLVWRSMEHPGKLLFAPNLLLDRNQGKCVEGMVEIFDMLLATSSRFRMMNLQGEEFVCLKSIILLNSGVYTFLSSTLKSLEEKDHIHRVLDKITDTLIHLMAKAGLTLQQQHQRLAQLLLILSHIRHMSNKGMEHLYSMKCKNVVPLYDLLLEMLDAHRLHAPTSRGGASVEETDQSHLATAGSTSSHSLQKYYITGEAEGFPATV
The assay is described as follows: biochemical. The method, then:
(§1) A 2 μL ligand solution at 2 times the final concentration was dispensed with a micropipette into a 384 well black wall Greiner plate. Then, 2 μL of the protein dye solution was dispensed on top of the ligand solution in the 384 well plate. The plates were spun to ensure nixing of the protein-dye and ligand solutions followed by layering of 1 μL of silicone oil to prevent evaporation during heating of the samples. […] The values for the co-regulators represent a change in Tm stabilization from the receptor-ligand ΔTm values.

Assay [2] has as its target T2, ER-β (Homo sapiens, UniProt Q92731). The conditions noted are these: ligand 40 μM; for Change in Tm stabilization from receptor-ligand ΔTm, SRC1: SRC-1 20 μM; for Observed ΔTm stabilization, Ligand: no co-activator.
The target of assay [3] is T2, ER-β. The assay is described as follows: Microplate thermal shift (Thermofluor) of ER-β with ligands and co-regulators, Example 1. The following applies: ER-β 8 μM, ligand 20 μM. The class given is binding. Also noted: Observed ΔTm stabilization, ligand alone / Change in Tm stabilization from receptor-ligand ΔTm, SRC-3 / Change in Tm stabilization from receptor-ligand ΔTm, NcoR1-NR1: unit not given here. The method, then: as §1
Background: Differential scanning fluorimetry follows unfolding on heating by fluorescence.

Assay [4] deals with T1, ER-α. The assay is described as follows: biochemical. On the procedure: Table 4, shown below, is a summary of the data obtained for ER-α and ER-β in the presence of the coactivator proteins SRC-1 SRC-2 and SRC-3 and in the presence of seven ligands. The concentration of ER-α in all experiments was 8 μM, the ligand concentration was 40 μM, SRC-1 and SRC-3 were at 20 μM.
(§2) A 2 μL ligand solution at 2 times the final concentration was dispensed with a micropipette into a 384 well black wall Greiner plate. Then 2 μL of the protein dye solution was dispensed on top of the ligand solution in the 384 well plate. The plates were spun to ensure mixing of the protein-dye and ligand solutions followed by layering of 1 μL of silicone oil to prevent evaporation during heating of the samples. Data were collected on a Thermofluor apparatus and data were analyzed using software that employs a non-linear Marquardt algorithm. Reported results are the average of four experiments. The values for the co-regulators represent a change in Tm stabilization from the receptor-ligand ΔTm values.
FIG. 3 illustrates binding constants, Ka, for co-activator proteins SRC-1, SRC-2 and SRC-3 in the presence of ER-α ligands. FIG. 4 illustrates binding constants, Ka, for co-activator proteins SRC-1, […] in the presence of ER-β ligands Binding constants were calculated from the observed induced ligand and co-regulator stabilization of the nuclear receptor.
The source holds these as a separate data set.

Assay [5] concerns the target T3, PPAR-γ (Homo sapiens, UniProt P37231).
T3 sequence (P37231 1-505): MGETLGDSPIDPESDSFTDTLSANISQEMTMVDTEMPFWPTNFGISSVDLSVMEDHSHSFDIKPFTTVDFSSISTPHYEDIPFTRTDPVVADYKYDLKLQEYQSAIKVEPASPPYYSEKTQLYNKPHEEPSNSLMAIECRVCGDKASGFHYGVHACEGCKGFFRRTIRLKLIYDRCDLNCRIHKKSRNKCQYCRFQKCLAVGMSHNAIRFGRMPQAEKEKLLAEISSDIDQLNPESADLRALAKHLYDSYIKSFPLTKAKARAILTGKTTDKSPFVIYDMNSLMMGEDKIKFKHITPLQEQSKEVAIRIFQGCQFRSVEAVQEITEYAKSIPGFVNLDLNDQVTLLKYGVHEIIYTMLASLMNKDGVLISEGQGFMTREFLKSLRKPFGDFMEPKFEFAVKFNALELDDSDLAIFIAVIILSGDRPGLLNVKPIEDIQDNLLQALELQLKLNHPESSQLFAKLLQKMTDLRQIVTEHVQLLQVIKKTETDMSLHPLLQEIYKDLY
The following applies: reported in literature; partial = partial agonist; cited from earlier work.

Assay [6] concerns the target T3, PPAR-γ. Briefly: Microplate thermal shift of PPAR-γ with ligands, co-activator peptide and co-repressor peptide NCoR-1, Example 5. The following applies: for Observed stabilization of PPAR-γ, SRC1-NR2 / Observed stabilization of PPAR-γ, NCoR-1 / Observed stabilization of PPAR-γ, Ligand: PPAR-γ 8 μM, ligand 40 μM; for Observed stabilization of PPAR-γ, SRC1-NR2: co-activator peptide 200 μM; for Observed stabilization of PPAR-γ, NCoR-1: co-repressor peptide NCoR-1 200 μM; for Observed stabilization of PPAR-γ, Ligand: no peptide; for Thermofluor Prediction (PPAR-γ): based on relative affinities for co-activator and co-repressor peptides, partial = partial agonist. The class given is binding. On the procedure:
as §2, with “The experiments were performed in 25 mM HEPES pH 7.9, 200 mM NaCl, […] and in the presence of 50 μM dapoxyl-2-amino-ethyl sulfonamide. A” for “A”, “experiments.” for “experiments. The values for the co-regulators represent a change in Tm stabilization from the receptor-ligand ΔTm values.”

The target of assay [7] is T2, ER-β. Briefly: biochemical.
The target in assay [8] is T1, ER-α. Briefly: Microplate thermal shift of ER-α against a panel of steroid ligands, Example 2. It counts as binding. The following applies: ER-α 8 μM, ligand 20 μM, 25 mM phosphate pH 8.0; average of four experiments. On the procedure:
The concentration of ER-α in all of the experiments was 8 μM and the ligand concentration was 20 μM.
A 2 μL ligand solution at 2 times the final concentration was dispensed with a micropipette into a 384 well black wall Greiner plate. Then, 2 μL of the protein dye solution was dispensed on top of the ligand solution in the 384 well plate. The plates were spun to ensure mixing of the protein-dye and ligand solutions followed by layering of 1 μL of silicone oil to prevent evaporation during heating of the samples.

[9] abbreviates: read-out: Change in Tm stabilization from receptor-ligand ΔTm, SRC1.
[10] abbreviates: read-out: Change in Tm stabilization from receptor-ligand ΔTm, SRC3.

Read-outs that look alike come from different tables or passages of the source.

T2 sequence (Q92731 whole entry, species assumed): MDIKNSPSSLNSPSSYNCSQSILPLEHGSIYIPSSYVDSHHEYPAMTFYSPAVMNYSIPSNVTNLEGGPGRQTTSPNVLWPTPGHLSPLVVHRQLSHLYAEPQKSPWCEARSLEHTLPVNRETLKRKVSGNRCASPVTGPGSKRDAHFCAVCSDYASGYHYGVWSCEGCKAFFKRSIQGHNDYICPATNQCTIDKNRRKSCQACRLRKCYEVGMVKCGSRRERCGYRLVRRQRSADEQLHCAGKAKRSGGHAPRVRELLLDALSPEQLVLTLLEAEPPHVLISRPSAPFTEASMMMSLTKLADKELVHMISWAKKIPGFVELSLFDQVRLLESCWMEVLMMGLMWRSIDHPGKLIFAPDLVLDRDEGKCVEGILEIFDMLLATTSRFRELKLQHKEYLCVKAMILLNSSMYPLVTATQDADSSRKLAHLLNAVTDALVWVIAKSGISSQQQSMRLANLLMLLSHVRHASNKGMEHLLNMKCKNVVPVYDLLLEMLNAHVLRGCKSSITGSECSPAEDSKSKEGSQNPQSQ

Consider 4-hydroxytamoxifen [4-OH-tamoxifen], for which the “Classification as agonist or antagonist for ER-α” value on ER-α [1] is “antagonist”.
Consider “17-α-ethylene-estradiol [17-α-ethylene-E2]”, for which the “Change in Tm stabilization from receptor-ligand ΔTm, SRC1” value on ER-β [2] came to 1.1.
For `COc1cc2c(cc1O)CC[C@@H]1[C@@H]2CC[C@]2(C)[C@@H](O)CC[C@@H]12` [2-methoxy-E2, 2-methoxy-estradiol], the “Change in Tm stabilization from receptor-ligand ΔTm, SRC1-NR2” value at ER-β [3] (co-activator peptide SRC1-NR2 100 μM) is reported as 4.4. Further, the “Change in Tm stabilization from receptor-ligand ΔTm, SRC3-NR2” value on ER-β [3] (co-activator peptide SRC3-NR2 100 μM) came out at 4.4. For the same compound, at ER-β [3] (co-activator protein SRC-3 11 μM), the “Change in Tm stabilization from receptor-ligand ΔTm, SRC-3” value is 2.5. In addition, the “Change in Tm stabilization from receptor-ligand ΔTm, NcoR1-NR1” value is reported as −0.7 at ER-β [3] (co-repressor peptide NCoR-1 100 μM) and −0.7 on ER-α [1] (ER-α 8 μM, ligand 20 μM, co-repressor peptide NCoR-1 100 μM). The “Observed ΔTm stabilization, ligand alone” value on ER-β [3] (no co-regulator, average of four experiments) was 2.9; on ER-α [1] (ER-α 8 μM, ligand 20 μM, no co-regulator, average of four experiments), 3.5. Also, the “Change in Tm stabilization from receptor-ligand ΔTm, SRC1” value on ER-α [4] (ER-α 8 μM, ligand 40 μM, SRC-1 20 μM) came to 2.1; at ER-β [2], 1.0. Besides, the “Observed ΔTm stabilization, Ligand” value at ER-α [4] (ER-α 8 μM, ligand 40 μM, no co-activator) came out at 3.5; on ER-β [2], 2.9. In addition, at ER-β [2] (SRC-3 20 μM), the “Change in Tm stabilization from receptor-ligand ΔTm, SRC3” value was 2.5. In addition, the “Change in Tm stabilization from receptor-ligand ΔTm, SRC2” value on ER-β [2] (co-activator protein SRC-2) was 2.4. For the same compound, the “Classification as agonist or antagonist for ER-α” value on ER-α [1] (if screened against a panel of co-regulators as in Example 1) was “agonists”.
As for `CC(C)(c1ccc(OCC2CO2)cc1)c1ccc(OCC2CO2)cc1` (stereo not drawn) [BADGE], the “Literature profile of ligand” value on PPAR-γ [5] is on record as “Antagonist γ”. For the same compound, at PPAR-γ [6], the “Observed stabilization of PPAR-γ, SRC1-NR2” value is on record as 1.1; the “Observed stabilization of PPAR-γ, NCoR-1” value was determined as 5.5; the “Observed stabilization of PPAR-γ, Ligand” value was found to be 1.1; the “Thermofluor Prediction (PPAR-γ)” value is reported as “Antagonist”.
On to `C[C@]12CC[C@@H]3c4ccc(O)cc4CC[C@H]3[C@@H]1CC[C@@H]2O` [Estradiol], for which the shift in melting temperature (ΔTm) – broadly, the change in melting temperature against a reference sample – at 20 µM on ER-β [7] (setting [9]) was found to be 0.5 °C.
As to `O=C(Nc1ccccc1)c1cc([N+](=O)[O-])ccc1Cl` [GW9662], on PPAR-γ [5], the “Literature profile of ligand” value is given as “Antagonist γ”. Besides, at PPAR-γ [6], the “Observed stabilization of PPAR-γ, SRC1-NR2” value is 1.2; the “Observed stabilization of PPAR-γ, NCoR-1” value is 3.5; the “Observed stabilization of PPAR-γ, Ligand” value was determined as 5.9; the “Thermofluor Prediction (PPAR-γ)” value was “Antagonist”.
Regarding `C[C@]12CC[C@@H]3c4ccc(O)cc4C[C@@H](CCCCCCCCC[S+]([O-])CCCC(F)(F)C(F)(F)F)[C@H]3[C@@H]1CC[C@@H]2O` (stereo partly drawn) [ICI-182780], the ΔTm at 11 µM on ER-β [3] (co-activator protein SRC-3 11 μM, read-out: Change in Tm stabilization from receptor-ligand ΔTm, SRC-3) was 0.9 °C; on ER-α [1] (read-out: Change in Tm stabilization from receptor-ligand ΔTm, SRC-3), 0.5 °C. Further, at ER-α [4] (from Table 4 and FIGS. 3 and 4, SRC-1, SRC-2, SRC-3, ER-α (b172 also ER-β)), the “Co-activator recruitment, conclusion in words” value is reported as “very little ability to recruit co-activator”. Besides, the ΔTm at 20 µM stood at 0.4 °C on ER-α [4] (setting [9]), 0.5 °C on ER-α [4] (setting [10]), 0.5 °C at ER-β [7] (setting [9]) and 0.9 °C on ER-β [7] (setting [10]). For the same compound, the “Observed ΔTm stabilization, Ligand” value on ER-β [2] was 16.7. In addition, the “Co-activator recruitment / additional stabilization, conclusion in words” value at ER-α [1] (from Table 1, both receptors ER-α and ER-β) is listed as “no ability to recruit co-activators”.
With `Cc1cccc(Nc2cc(Cl)nc(SCC(=O)O)n2)c1C` [WY14643], at PPAR-γ [5], the “Literature profile of ligand” value is listed as “Partial α, antagonist γ”. At PPAR-γ [6], the “Observed stabilization of PPAR-γ, SRC1-NR2” value was found to be 1.5; the “Observed stabilization of PPAR-γ, NCoR-1” value is 5.0; the “Observed stabilization of PPAR-γ, Ligand” value is 1.0; the “Thermofluor Prediction (PPAR-γ)” value is recorded as “Antagonist”.
In the case of `C[C@]12CCC(=O)C=C1CC[C@@H]1[C@@H]2C(=O)C[C@@]2(C)[C@H]1CC[C@]2(O)C(=O)CO` [cortisone], on ER-α [8], the ΔTm came out at 0.01 °C.

The record behind these values is US20060110732A1, “Method for the identification of ligands” (priority 2002, published 2006).
